Consider 4 molecules from patent publication US11787819B2, “Crystalline salt of a multi-tyrosine kinase inhibitor, method of preparation, and use thereof” (Mirati Therapeutics, Inc., priority 2021, dated 2023).

A short description of data set [1]: Storage of Tartrate Form A-1 at 2-8° C. (XRPD). Type of data set: physicochemical. Conditions: stored at 2-8° C. for 4 weeks.
A short description of data set [2]: Critical relative humidity stress (XRPD of post-stress solids). Type of data set: physicochemical. Conditions: RT. As for the experimental part:
Critical relative humidity (RH) experiments were designed to confirm the physical stability RH range for Malate Form A in the solid-state. […] The water content of Malate Form A and Material D were characterized by Karl Fischer analysis. (See Table 3A(2)).
(§1) Experiments were carried out by exposing solids of the test materials to various RH conditions. Preparation of specimens for XRPD analyses of post-stress solids was conducted with minimal exposure to ambient conditions. For selected samples, Karl Fischer analysis was done concurrently with XRPD testing. These samples therefore were kept in a glove bag equilibrated at the RH near to the exposure conditions, and the XRPD specimens were prepared inside the glove bag.
A mixture of Malate Form A/Malate Material H was subjected to 0%, 11%, 23%, 69%, and 93% RH, each for approximately 5 days. It should be noted that the stress RH was not maintained during the XRPD specimen preparation and analyses. Therefore, solids from all these stress conditions were briefly exposed to ambient RH estimated as ˜21-23% at the time of the analyses.
(§2) To investigate this further, stress experiments were conducted at 30% and 93% RH with minimal exposure to ambient RH so that XRPD and water content analyses could be considered representative of the stress conditions. […] In these experiments, a mixture of Malate Form A/Malate Material H was initially subjected to 93% RH for ˜8 days. It was then immediately analyzed by XRPD and Karl Fischer. The same sample was then re-exposed to 30% RH.

The nature of data set [3]: Critical water activity slurries in organic solvent/water (XRPD). Type of data set: physicochemical. The note with it: Acetone/H2O 98/2, 1 week, water activity 0.35. The protocol: An evaluation of the physical stability of Malate Form A under solvent-mediated conditions and assessment of the potential competition between solvate and hydrate formation were conducted by slurrying Malate Form A in various organic solvent/water systems (Table 3C).
An acetone/water system was selected for investigation of the stability at water activities between 0.4 and 0.9. Aqueous ACN, Dioxane, DMF, DMSO, and NMP were also investigated. A mixture of Malate Form A/Malate Material H was primarily used as the starting material. Samples of Malate Form A were combined and utilized as the starting material in a single experiment (acetone/water at low water activity).

The nature of data set [4]: Karl Fischer water content. Type of data set: physicochemical. The protocol: Coulometric Karl Fischer analysis for water determination was performed using a Mettler Toledo DL39 Karl Fischer titrator with a Stromboli oven attachment. Prior to analyses samples tested were exposed to specified ambient relative humidity for ˜2 hours. Two replicates of the sample were placed into the drying oven set at a temperature of approximately 140 or 145° C. The drying oven was purged into the titrator vessel with dry nitrogen. The samples were then titrated by means of a generator electrode, which produces iodine by electrochemical oxidation: 2I−→I2+2e−. A NIST-traceable water standard (Hydranal Water Standard 10.0) was analyzed to check the operation of the coulometer.
as §1, §2

Data set [5] in a line: Pharmacokinetics in beagle dogs, oral capsule and IV solution. In kind it is in vivo. The protocol: Centrifugation began within 1 hour of collection. Plasma was placed into 96-well tubes with barcode labels. Plasma was maintained on dry ice prior to storage at approximately −70° C.
Data set [6] in a line: Long term stability studies (related impurities by HPLC). In kind it is physicochemical. As for the experimental part:
Long term stability studies for Compound 1 Malate Form A were conducted at 2-8° C. and 25° C./60% RH. For each test interval, samples are packaged into double polyethylene bags, individually zip tied and stored in 30 mL white screw cap HDPE bottles.

Experiment in data set [7]: as above
In kind it is physicochemical. Conditions: 6 months storage at 40° C./75% RH, 12 months storage at 40° C./75% RH.

The nature of data set [8]: Dynamic vapor sorption (DVS). Conditions: 25° C. Type of data set: physicochemical. As for the experimental part: Moisture sorption/desorption data were collected using a Surface Measurement System (SMS) DVS Intrinsic Instrument according to the manufacturer's instructions. Samples were not dried prior to analysis. Sorption/desorption data were collected over a range from 5% to 95% relative humidity (RH) at 10% RH increments under a nitrogen gas purge. The equilibrium criterion used for analysis was less than 0.0100% weight change in 5 min with a maximum equilibration time of three hours. Data were not corrected for initial moisture content of the samples.
The sample was recovered after completion of the isotherm and re-analyzed by XRPD
Sorption isotherms of Compound 1 Malate Form A were obtained using a SMS DVS Intrinsic moisture sorption analyzer, controlled by DVS Intrinsic Control software. The sample temperature was maintained at 25° C. by the instrument controls. The humidity was controlled by mixing streams of dry and wet nitrogen, with a total flow rate of 200 mL/min. The relative humidity was measured by a calibrated Rotronic probe (dynamic range of 1.0-100% RH), located near the sample. The weight change, (mass relaxation) of the sample as a function of % RH was constantly monitored by a microbalance (accuracy ±0.005 mg).
Briefly, Malate Form A was placed in a tared mesh stainless steel basket under ambient conditions. The sample was loaded and unloaded at 40% RH and 25° C. (typical room conditions) and allowed to equilibrate to 5% RH. A moisture sorption isotherm was performed as outlined below (1 scan per complete cycle). The standard isotherm was performed at 25° C. at 10% RH intervals over a 5-95% RH range. Data analysis was carried out within Microsoft Excel using the DVS Analysis Suite.

Data set [9] in a line: Clinical trials, salt dosed in patients. Type of data set: in vivo, human.
Data set [10] is described as follows: Heat and elevated temperature/relative humidity stress (XRPD). In kind it is physicochemical. The note with it: heating at or above 40° C. (7 days at 40° C. and 80° C.; at or above 120° C. for ~1 hour). The protocol:
Heat and elevated temperature/RH stresses were designed to evaluate the physical stability of Compound 1 Malate Form A at elevated temperature. A mixture of Compound 1 Malate Form A/Malate Material H was utilized for testing. Experiments were conducted by heating solids of the test material at 40, 80, 120, and 140-145° C. Solids were also subjected to a combination of elevated temperature and RH, i.e. 40° C./75% RH and 30° C./60% RH (Table 3B).

A short description of data set [11]: Phase 1 single-dose crossover relative bioavailability study of capsule formulations in Healthy Subjects. In kind it is in vivo, humans. The note with it: 100 mg capsule, oral administration. The protocol: A Phase 1, 2-part, open-label, single-dose, crossover study was conducted to evaluate the relative bioavailability of Compound 1 Malate vs Compound 1 Free base capsule formulations in Healthy Subjects following oral administration.

With `COCCNCc1ccc(-c2cc3nccc(Oc4ccc(NC(=O)C5(C(=O)Nc6ccc(F)cc6)CC5)cc4F)c3s2)nc1` [Tartrate Form A, N-(3-fluoro-4-((2-(5-(((2-methoxyethyl)amino)methyl)pyridin-2-yl)thieno[3,2-b]pyridin-7-yl)oxy)phenyl)-N′-(4-fluorophenyl)cyclopropane-1,1-dicarboxamide (2R,3R)-2,3-dihydroxysuccinate (1:1)], in data set [1], the “XRPD Results after storage” value was “Remained”.
Regarding `COCCNCc1ccc(-c2cc3nccc(Oc4ccc(NC(=O)C5(C(=O)Nc6ccc(F)cc6)CC5)cc4F)c3s2)nc1` [Compound 1 Malate Form A], the “XRPD Results after RH stress” value in data set [2] (30% RH, 4 days (~33% ambient RH at sample preparation, glove bag)) is given as “Malate Form A, slight peak shifts (c)”; in data set [2] (93% RH, 1 day), “Malate Form A,”. Further, the “Relative humidity above which the form is physically stable” value in data set [2] (below it a reversible dehydration was seen) was “above 23 % RH”. For the same molecule, the “XRPD Results after slurry” value in data set [3] was “Malate Form A + Malate Material B”. In addition, the “Water content (Karl Fischer)” value in data set [4] (after the 30% RH stress) came out at 3.7%; in data set [4] (after the 93% RH stress), 5.3%. The “Water content, equivalent in mol” value in data set [4] (after the 30% RH stress) is reported as “about 1.5 mol”; in data set [4] (after the 93% RH stress) it was about 2.5 mol. The “Calculated H2O content (KF, average value from 2 runs)” value in data set [4] (~12% RH at sample preparation) is on record as “Calculated H2O content: 3.47%”; in data set [4] (~17-18% RH at sample preparation, ~35 seconds for preparation) it was “Calculated H2O content: 3.73%”; in data set [4] (~35-36% RH at sample preparation, ~35 seconds for preparation), “Calculated H2O content: 5.32%”. The “Absolute Bioavailability (%) (DN AUC [Oral]/DN AUC [IV]) * 100” value in data set [5] (beagle dogs, orally administered) stood at 34.2%. The “Improvement in oral bioavailability compared to the amorphous of Compound 1 free base plus surfactant” value in data set [5] (dogs, in the absence of surfactant) is on record as 2 fold. In addition, the “Related Impurities (HPLC): Total impurities” value in data set [6] (2-8° C., 0 month) was 0.86%; in data set [6] (2-8° C., 3 months), 0.87%; in data set [6] (2-8° C., 6 months) it was 0.79%; in [6] (2-8° C., 12 months), 0.78%; in data set [6] (2-8° C., 24 months), 0.80%; in data set [6] (25° C./60% RH, 0 month), 0.86%. Further, the “Related Impurities (HPLC): Total impurities” value in data set [6] (25° C./60% RH, 3 months) was 0.76%; in data set [6] (25° C./60% RH, 6 months), 0.83%; in data set [6] (25° C./60% RH, 12 months) it was 0.80%; in data set [6] (25° C./60% RH, 24 months), 0.90%. Besides, the “Long term stability (in words)” value in data set [6] (24 months storage at 2-8° C. or 25° C./60% RH) and in data set [7] was “stable” in each case. In addition, the “DVS weight loss, desorption” value is reported as about 1.7% in data set [8] (15-5% RH) and “approximately 1.3 wt %” in data set [8] (95-15% RH). The “DVS weight gain, sorption” value in data set [8] (between 5-25% RH) is “about 2.1 wt %”. In [8] (between 25-95% RH), the “DVS additional weight gain, sorption” value turned out to be 1.1 wt %. Further, the “DVS weight loss upon equilibration at 5% RH” value in data set [8] (equilibration at 5% relative humidity) amounted to 1.2 wt %. Further, the “Dose reduction achieved when the salt was dosed in patients (vs free base)” value in data set [9] was 20-30%. The “Effect of heating (XRPD)” value in data set [10] was “partial dehydration”.
With `COCCNCc1ccc(-c2cc3nccc(Oc4ccc(NC(=O)C5(C(=O)Nc6ccc(F)cc6)CC5)cc4F)c3s2)nc1` [Compound 1 Malate, N-(3-fluoro-4-((2-(5-(((2-methoxyethyl)amino)methyl)pyridin-2-yl)thieno[3,2-b]pyridin-7-yl)oxy)phenyl)-N′-(4-fluorophenyl)cyclopropane-1,1-dicarboxamide (S)-2-hydroxysuccinate (1:1)], the “Bioequivalence to 120 mg Compound 1 Free base capsule formulation” value in data set [11] is on record as “bioequivalence was achieved”.
In the case of `COCCNCc1ccc(-c2cc3nccc(Oc4ccc(NC(=O)C5(C(=O)Nc6ccc(F)cc6)CC5)cc4F)c3s2)nc1` [Compound 1, N-(3-fluoro-4-((2-(5-(((2-methoxyethyl)amino)methyl)pyridin-2-yl)thieno[3,2-b]pyridin-7-yl)oxy)phenyl)-N′-(4-fluorophenyl)cyclopropane-1,1-dicarboxamide], the “Long term stability (in words)” value in [6] (room temperature, drug substance and drug product) is on record as “poor long term stability”.
